Reference: patent US3959252A, “Alkamoyl-josamycins” (Yamanouchi Pharmaceutical Co., Ltd., priority 1968, dated 1976)
Read-outs that look alike come from different tables or passages of the source.

Legend:
[1] = system: Staphylococcus aureus No. 226 strain; test: Protection of mice from subcutaneous Staphylococcal infection; assay type: in vivo; conditions: 48 hours, control 88.2
Procedure: Experimental procedure: Groups of 5 mice were inoculated subcutaneously in the back with 10^8 cells (in 0.1 ml volume) of Staphylococcus aureus No. 226 strain. Immediately after the infection, Josamycin or monoacetyl-josamycin-2 was administered orally. To the control group, no medicament was administered. After 48 hours, the animals were killed. The skin of the back of each mouse was cut open, and the size of subcutaneous abscess was measured.

pKa' measurement = assay type: physicochemical; conditions: 40% aqueous methanol
Description: 4. pKa' less than 6 (measured in 40% aqueous methanol)
4. pKa 7.03 (measured in 40% aqueous methanol)

[2] = system: Staphylococcus aureus Smith; test: Protection of mice from systemic staphylococcal infection; assay type: in vivo; conditions: 5 mice, control 0 of 10
Description: Experimental procedure: Group of 5 mice were inoculated intraperitoneally with 1000 MLD (containing 5% of mucin added) of Staphylococcus aureus Smith. Immediately after the infection, a single dose of each antibiotic was given orally. The survival of mice after 7 days was observed. The group for control (10 mice) was given no antibiotic.

[3] = system: Bacillus subtilis ATCC 6635; test: MIC, agar dilution on nutrient agar; assay type: cell-based; conditions: ATCC6635, acetylated Josamycins as Josamycin equivalent, read-out: Minimum Inhibitory Concentration (MIC)
Procedure: (§1) Experimental procedure: Minimum inhibitory concentrations (MIC) were determined as to Josamycin, monoacetyl-josamycin-1, monoacetyl-josamycin-2and diacetyl-josamycin, according to usual agar dilution method on nutrient agar.

[4] = system: Shigella flexneri 2a 1675; test: MIC, agar dilution on nutrient agar; assay type: cell-based; conditions: 2A1675, acetylated Josamycins as Josamycin equivalent, read-out: Minimum Inhibitory Concentration (MIC)
Procedure: as §1

Mycobacterium 607 = test: MIC, agar dilution on nutrient agar; assay type: cell-based; conditions: acetylated Josamycins as Josamycin equivalent, read-out: Minimum Inhibitory Concentration (MIC)
Procedure: as §1

[5] = system: Staphylococcus aureus PC, SM, TC, EM, SA resistant; test: MIC, agar dilution on nutrient agar; assay type: cell-based; conditions: acetylated Josamycins as Josamycin equivalent, read-out: Minimum Inhibitory Concentration (MIC)
Procedure: as §1

[6] = system: Staphylococcus aureus FDA 209P; test: MIC, agar dilution on nutrient agar; assay type: cell-based; conditions: FDA209P, acetylated Josamycins as Josamycin equivalent, read-out: Minimum Inhibitory Concentration (MIC)
Procedure: as §1

[7] = system: Staphylococcus aureus FDA 209P Smith; test: MIC, agar dilution on nutrient agar; assay type: cell-based; conditions: FDA209P, acetylated Josamycins as Josamycin equivalent, read-out: Minimum Inhibitory Concentration (MIC)
Procedure: as §1

Escherichia coli PCI 602 = test: MIC, agar dilution on nutrient agar; assay type: cell-based; conditions: PCI602, acetylated Josamycins as Josamycin equivalent, read-out: Minimum Inhibitory Concentration (MIC)
Procedure: as §1

Salmonella typhi H 901W = test: MIC, agar dilution on nutrient agar; assay type: cell-based; conditions: Salmonella enterica, read-out: Minimum Inhibitory Concentration (MIC)
Procedure: as §1

[8] = system: Staphylococcus aureus PC, CP, TC, SA resistant; test: MIC, agar dilution on nutrient agar; assay type: cell-based; conditions: acetylated Josamycins as Josamycin equivalent, read-out: Minimum Inhibitory Concentration (MIC)
Procedure: as §1

[9] = Josamycin base, as described; cited from earlier work
[10] = system: staphylococci resistant to streptothricin, telomycin, streptomycin, chloramphenicol, or penicillin; conditions: cited from earlier work
[11] = titrated in aqueous methanol; base form; cited from earlier work
[12] = 200 mg/kg oral (as Josamycin equivalent)
[13] = 50 mg/kg oral single dose (as Josamycin equivalent)
[14] = 150 mg/kg oral single dose (as Josamycin equivalent)
[15] = 500 mg/kg oral single dose (as Josamycin equivalent)

Compound | Size of abscess [1, 12] [mm^2] | pKa (pKa' measurement; read-out: pKa') | Solubility (easily soluble solvents) (Solubility) | Solubility (hardly soluble solvents) (Solubility) | Solubility (soluble solvents) (Solubility) | Survival on 7th day (number of mice) [2, 13] | Survival on 7th day (number of mice) [2, 14] | Survival on 7th day (number of mice) [2, 15] | MIC [3] [µg/mL] | MIC [4] [µg/mL] | MIC (Mycobacterium 607) [µg/mL] | MIC [5] [µg/mL] | MIC [6] [µg/mL] | MIC [7] [µg/mL] | MIC (Escherichia coli PCI 602) [µg/mL] | MIC (Salmonella typhi H 901W) [µg/mL] | MIC [8] [µg/mL] | also measured
COC1C(OC(C)=O)CC(=O)OC(C)C/C=C/C=C/C(OC(C)=O)C(C)CC(CC=O)C1OC1OC(C)C(OC2CC(C)(O)C(OC(=O)CC(C)C)C(C)O2)C(N(C)C)C1O (centres unmarked) [Monoacetyl-josamycin-2, monoacetyl-josamycin-2] | 0.64 | 7.03 | easily soluble in acetone, chloroform, methanol, ethyl acetate and ethylether | hardly soluble in water, petroleum ether and n-hexane | soluble in carbon tetrachloride | 0 | 3 | 5 | 0.39 | 50 | 3.1 | > 100 | 0.39 | 0.39 | > 100 | > 100 | 0.78 | 
COC1C(OC(C)=O)CC(=O)OC(C)C/C=C/C=C/C(OC(C)=O)C(C)CC(CC=O)C1OC1OC(C)C(OC2CC(C)(O)C(OC(=O)CC(C)C)C(C)O2)C(N(C)C)C1OC(C)=O (centres unmarked) [Diacetyl-josamycin, diacetyl-josamycin] |  |  |  |  |  |  |  |  | 0.39 | 50 | 3.1 | > 100 | 0.39 | 0.39 | > 100 | > 100 | 0.78 | pKa (pKa' measurement): < 6
COC1C(OC(C)=O)CC(=O)OC(C)C/C=C/C=C/C(O)C(C)CC(CC=O)C1OC1OC(C)C(OC2CC(C)(O)C(OC(=O)CC(C)C)C(C)O2)C(N(C)C)C1OC(C)=O (centres unmarked) [Monoacetyl-josamycin-1, 2'-acetyl-josamycin] |  | < 6 | easily soluble in acetone, methylethylketone, chloroform, ethyl acetate and benzene | hardly soluble in water, petroleum ether and n-hexane | soluble in methanol and ethanol |  |  |  | 0.39 | 50 | 3.1 | > 100 | 0.39 | 0.39 | > 100 | > 100 | 0.78 | 
CO[C@@H]1[C@@H](O[C@@H]2O[C@H](C)[C@@H](O[C@H]3C[C@@](C)(O)[C@@H](OC(=O)CC(C)C)[C@H](C)O3)[C@H](N(C)C)[C@H]2O)[C@@H](CC=O)C[C@@H](C)[C@@H](O)/C=C/C=C/C[C@@H](C)OC(=O)C[C@H]1OC(C)=O [Josamycin] | 4.19 |  |  |  |  | 0 | 2 | 5 | 0.39 | 50 | 3.1 | > 100 | 0.39 | 0.39 | > 100 | > 100 | 0.78 | Solubility (easily soluble solvents) [9]: easily soluble in acidic water, methanol, ethanol, chloroform, ethyl acetate, and acetone; Solubility (slightly soluble solvents) [9]: slightly soluble in water, petroleum ether, ligroin, and n-hexane; Solubility (soluble solvents) [9]: soluble in benzene, ether and carbon tetrachloride; Size of abscess ([1]; 50 mg/kg oral): 21.2 mm^2; Inhibition of growth of resistant staphylococci [10]: inhibits the growth; pKa' [11]: 7.1
